Test [1] concerns the target anti-cotinine antibody (SEQ ID NO: 11/12, rabbit variable region with human IgG1 Fc DE mutation). The test can be described thus: SPR binding of anti-cotinine antibody to ARM compounds, Biacore T200, 37° C. (Example 202). The note with it: SPR Biacore T200, 37° C., pH 7.4, antibody SEQ ID NO: 11/12 captured on protein A; Kd in molar. As for the experimental part:
Anti-cotinine antibodies having a heavy chain sequence of SEQ ID NO: 11 and a light chain sequence of SEQ ID NO: 12 (rabbit variable region with human IgG1 Fc domain containing a DE mutation (S239D/1332E)) were captured on one or more flow cells of a protein A sensor chip (Cytiva) using a Biacore T200 while reserving flow cell 1 as a reference. Following capture, a 3000 second wait step was included to reduce drift during compound analysis. ARM compounds of Formula (I) were then injected at 100 μL/min with 200 and 2000 second association and dissociation times. The entire experiment was run at 37° C. with running buffer containing 10 mM HEPES pH 7.4, 150 mM NaCl, 0.005% P20 and 1% DMSO. ARM compounds of Formula (I) were titrated with a top concentration of 200 nM using a 3-fold 5-point dilution series and a corresponding 5-injection buffer cycle was run for blank subtraction. Data were double referenced by subtracting the response of the reference flow cell from that of the antibody-containing flow cell and subsequently subtracting the referenced blank sensorgrams. Following compound analysis, the surface was regenerated using a 30 second injection of pH 1.5 glycine at a flow rate of 30 μL/min after which antibody was re-captured. The experiment was run using Biacore T200 control software and evaluated using Biacore T200 Evaluation software. Curves were fit with a 1:1 kinetic binding model to obtain kon (1/Ms), koff(1/s), Kd (M) determined as koff/kon, and residence time determined as 1/koff (s).
Anti-cotinine antibody was tested for binding to ARMs compounds of Formula (I) of the invention in the above assay in or more experimental runs and the results are shown in Table 5 below. Affinity is reported as a pKd value. The pKd value is the negative log of the Kd value, wherein the Kd value is the dissociation constant measured in molar (M) as noted above. For compounds tested in more than one experimental run, the pKd value is reported as an average

The subject of test [2] is endogenous target monocytes in human PBMC. The test can be described thus: PBMC ex vivo monocyte depletion flow cytometry assay (Example 200). It is filed as cell-based. The note with it: with anti-cotinine antibody (SEQ ID NO: 11/12), 18-24 hours, EC50 in molar, read-out: Ex Vivo Depletion Assay pEC50 (converted). Summed up: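 Monocyte depletion is reported as pEC50, averaged or given individually across runs, and read by flow cytometry staining CD45, CD14 and CD4 with a viability dye. Compounds, diluted four-fold over 11 points from 1 mM DMSO stocks, were combined with 30 μg/mL Fc-enhanced anti-cotinine antibody and human PBMC, then incubated 18-24 h at 37° C.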
Background: A flow cytometer gives signals particle by particle.

Take `CC(C)N(C)[C@@H]1CC[C@H](N2CC[C@H](Nc3ncnc4ccc(C(F)(F)F)cc34)C2=O)[C@H](NC(=O)COCCOCCNC(=O)COCCNC(=O)CCNC(=O)[C@H]2CC(=O)N(C)[C@@H]2c2cccnc2)C1` [Example 74, (2S,3S)-N-(1-(((1R,2S,5R)-5-(isopropyl(methyl)amino)-2-((S)-2-oxo-3-((6-(trifluoromethyl)quinazolin-4-yl)amino)pyrrolidin-1-yl)cyclohexyl)amino)-1,10,16-trioxo-3,6,12-trioxa-9,15-diazaoctadecan-18-yl)-1-methyl-5-oxo-2-(pyridin-3-yl)pyrrolidine-3-carboxamide]: in test [1], the “pKd of Antibody for ARM Compound of Formula (I)” value (shortened to “pKd of Antibody”) amounted to 9.091. The EC50 in test [2] was 100000 nM.
In the case of `CC(C)N(C)[C@@H]1CC[C@H](N2CC[C@H](Nc3ncnc4ccc(C(F)(F)F)cc34)C2=O)[C@H](NC(=O)CCOCCOCCNC(=O)COCCNC(=O)CCNC(=O)[C@H]2CC(=O)N(C)[C@@H]2c2cccnc2)C1` [Example 75, (2S,3S)-N-(19-(((1R,2S,5R)-5-(Isopropyl(methyl)amino)-2-((S)-2-oxo-3-((6-(trifluoromethyl)quinazolin-4-yl)amino)pyrrolidin-1-yl)cyclohexyl)amino)-3,9,19-trioxo-7,13, 16-trioxa-4, 10-diazanonadecyl)-1-methyl-5-oxo-2-(pyridin-3-yl)pyrrolidine-3-carboxamide], the “pKd of Antibody” value in test [1] turned out to be 9.103. Besides, the EC50 in test [2] is 1 nM.
On the same counts, the results for `CC(C)N(C)[C@@H]1CC[C@H](N2CC[C@H](Nc3ncnc4ccc(C(F)(F)F)cc34)C2=O)[C@H](NC(=O)COCCNC(=O)CCNC(=O)COCCOCCNC(=O)[C@H]2CC(=O)N(C)[C@@H]2c2cccnc2)C1` [Example 79, (2S,3S)-N-(18-(((1R,2S,5R)-5-(Isopropyl(methyl)amino)-2-((S)-2-oxo-3-((6-(trifluoromethyl)quinazolin-4-yl)amino)pyrrolidin-1-yl)cyclohexyl)amino)-8,12,18-trioxo-3,6,16-trioxa-9,13-diazaoctadecyl)-1-methyl-5-oxo-2-(pyridin-3-yl)pyrrolidine-3-carboxamide] are 9.126 and 3.16 nM.
The corresponding values for `CN1C(=O)C[C@H](C(=O)NCCOCC(=O)NCCOCC(=O)NCCOCCC(=O)N[C@@H]2C[C@H](NC(C)(C)C)CC[C@@H]2N2CC[C@H](Nc3ncnc4ccc(C(F)(F)F)cc34)C2=O)[C@H]1c1cccnc1` [Example 103, (2S,3S)-N-(18-(((1R,2S,5R)-5-(tert-Butylamino)-2-((S)-2-oxo-3-((6-(trifluoromethyl)quinazolin-4-yl)amino)pyrrolidin-1-yl)cyclohexyl)amino)-5,11,18-trioxo-3,9,15-trioxa-6, 12-diazaoctadecyl)-1-methyl-5-oxo-2-(pyridin-3-yl)pyrrolidine-3-carboxamide] are 9.0985 and 100000 nM.
The corresponding values for `CC(C)N(C)[C@@H]1CC[C@H](N2CC[C@H](Nc3ncnc4ccc(C(F)(F)F)cc34)C2=O)[C@H](NC(=O)COCCNC(=O)CCOCCNC(=O)COCCNC(=O)[C@H]2CC(=O)N(C)[C@@H]2c2cccnc2)C1` [Example 104, (2S,3S)-N-(18-(((1R,2S,5R)-5-(Isopropyl(methyl)amino)-2-((S)-2-oxo-3-((6-(trifluoromethyl)quinazolin-4-yl)amino)pyrrolidin-1-yl)cyclohexyl)amino)-5,12,18-trioxo-3,9,16-trioxa-6,13-diazaoctadecyl)-1-methyl-5-oxo-2-(pyridin-3-yl)pyrrolidine-3-carboxamide] are 9.051 and 0.631 nM.
`CC(C)N(C)[C@@H]1CC[C@H](N2CC[C@H](Nc3ncnc4ccc(C(F)(F)F)cc34)C2=O)[C@H](NC(=O)COCCNC(=O)[C@H]2CC[C@@H](NC(=O)CCOCCNC(=O)[C@H]3CC(=O)N(C)[C@@H]3c3cccnc3)CC2)C1` [Example 109, (2S,3S)-N-(2-(3-(((1S,4R)-4-((2-(2-(((1R,2S,5R)-5-(Isopropyl(methyl)amino)-2-((S)-2-oxo-3-((6-(trifluoromethyl)quinazolin-4-yl)amino)pyrrolidin-1-yl)cyclohexyl)amino)-2-oxoethoxy)ethyl)carbamoyl)cyclohexyl)amino)-3-oxopropoxy)ethyl)-1-methyl-5-oxo-2-(pyridin-3-yl)pyrrolidine-3-carboxamide]: the “pKd of Antibody” value in test [1] came out at 8.951. Also, the EC50 in test [2] was 0.631 nM.
On the same counts, the results for `CC(C)N(C)[C@@H]1CC[C@H](N2CC[C@H](Nc3ncnc4ccc(C(F)(F)F)cc34)C2=O)[C@H](NC(=O)CCOCCNC(=O)[C@H]2CC[C@@H](NC(=O)CCOCCNC(=O)[C@H]3CC(=O)N(C)[C@@H]3c3cccnc3)CC2)C1` [Example 110, (2S,3S)-N-(2-(3-(((1S,4R)-4-((2-(3-(((1R,2S,5R)-5-(Isopropyl(methyl)amino)-2-((S)-2-oxo-3-((6-(trifluoromethyl)quinazolin-4-yl)amino)pyrrolidin-1-yl)cyclohexyl)amino)-3-oxopropoxy)ethyl)carbamoyl)cyclohexyl)amino)-3-oxopropoxy)ethyl)-1-methyl-5-oxo-2-(pyridin-3-yl)pyrrolidine-3-carboxamide] are 8.9085 and 0.0501 nM.
On the same counts, the results for `CC(C)N(C)[C@@H]1CC[C@H](N2CC[C@H](Nc3ncnc4ccc(C(F)(F)F)cc34)C2=O)[C@H](NC(=O)[C@H]2CC[C@@H](NC(=O)CCO[C@H]3CC[C@H](OCCNC(=O)[C@H]4CC(=O)N(C)[C@@H]4c4cccnc4)CC3)CC2)C1` [Example 112, (2S,3S)-N-(2-(((1S,4S)-4-(3-(((1S,4S)-4-(((1R,2S,5R)-5-(Isopropyl(methyl)amino)-2-((S)-2-oxo-3-((6-(trifluoromethyl)quinazolin-4-yl)amino)pyrrolidin-1-yl)cyclohexyl)carbamoyl)cyclohexyl)amino)-3-oxopropoxy)cyclohexyl)oxy)ethyl)-1-methyl-5-oxo-2-(pyridin-3-yl)pyrrolidine-3-carboxamide] are 9.343 and 0.794 nM.
The corresponding values for `CC(C)N(C)[C@@H]1CC[C@H](N2CC[C@H](Nc3ncnc4ccc(C(F)(F)F)cc34)C2=O)[C@H](NC(=O)[C@H]2CC[C@H](NC(=O)CCO[C@H]3CC[C@H](OCCNC(=O)[C@H]4CC(=O)N(C)[C@@H]4c4cccnc4)CC3)CC2)C1` [Example 113, (2S,3S)-N-(2-(((1R,4S)-4-(3-(((1R,4R)-4-(((1R,2S,5R)-5-(Isopropyl(methyl)amino)-2-((S)-2-oxo-3-((6-(trifluoromethyl)quinazolin-4-yl)amino)pyrrolidin-1-yl)cyclohexyl)carbamoyl)cyclohexyl)amino)-3-oxopropoxy)cyclohexyl)oxy)ethyl)-1-methyl-5-oxo-2-(pyridin-3-yl)pyrrolidine-3-carboxamide] are 9.767 and 3.16 nM.
In the case of `CC(C)N(C)[C@@H]1CC[C@H](N2CC[C@H](Nc3ncnc4ccc(C(F)(F)F)cc34)C2=O)[C@H](NC(=O)[C@H]2C[C@@H](NC(=O)CCO[C@H]3CC[C@H](OCCNC(=O)[C@H]4CC(=O)N(C)[C@@H]4c4cccnc4)CC3)C2)C1` [Example 115, (2S,3S)-N-(2-(((1S,4S)-4-(3-(((1S,3S)-3-(((1R,2S,5R)-5-(Isopropyl(methyl)amino)-2-((S)-2-oxo-3-((6-(trifluoromethyl)quinazolin-4-yl)amino)pyrrolidin-1-yl)cyclohexyl)carbamoyl)cyclobutyl)amino)-3-oxopropoxy)cyclohexyl)oxy)ethyl)-1-methyl-5-oxo-2-(pyridin-3-yl)pyrrolidine-3-carboxamide], the “pKd of Antibody” value in test [1] is 9.363. Besides, the EC50 in test [2] was 0.158 nM.
For the compound `CC(C)N(C)[C@@H]1CC[C@H](N2CC[C@H](Nc3ncnc4ccc(C(F)(F)F)cc34)C2=O)[C@H](NC(=O)COCCNC(=O)COCCOCCNC(=O)CCNC(=O)[C@H]2CC(=O)N(C)[C@@H]2c2cccnc2)C1` [Example 143, (2S,3S)-N-(1-(((1R,2S,5R)-5-(Isopropyl(methyl)amino)-2-((S)-2-oxo-3-((6-(trifluoromethyl)quinazolin-4-yl)amino)pyrrolidin-1-yl)cyclohexyl)amino)-1,7,16-trioxo-3,9,12-trioxa-6,15-diazaoctadecan-18-yl)-1-methyl-5-oxo-2-(pyridin-3-yl)pyrrolidine-3-carboxamide], the “pKd of Antibody” value in test [1] came to 9.275. Besides, the EC50 in test [2] was 2.51 nM.

The values are drawn from US12521393B2, “Cytotoxicity targeting chimeras for CCR2-expressing cells” (GLAXOSMITHKLINE INTELLECTUAL PROPERTY DEVELOPMENT LIMITED, priority 2021, dated 2026).
